Tests used:
bovine serum albumin = bovine serum albumin (Bos taurus, UniProt P02769); assay: In vitro anti-inflammatory activity by inhibition of bovine serum albumin denaturation; type: biochemical; conditions: for % Inhibition at 10 μg: inhibition of heat-induced albumin denaturation (60° C., 10 min), turbidity, average of triplicate; for inhibition rate: at 10 μg, bovine serum albumin denaturation method
Method: Accordingly, in an embodiment of the present subject matter, the dimethyl 7-bromo-1-(4- substituted benzoyl)pyrrolo[1,2-α]quinoline-2,3-dicarboxylates derivatives, or the dimethyl 7-bromo-1-(4-substituted benzoyl)pyrrolo[1,2-α]quinoline-2,3-dicarboxylates, as described herein were screened for their in vitro anti-inflammatory activity by inhibiting the bovine serum albumin denaturation method. The test compound is dissolved in a minimum amount of dimethyl sulphoxide (DMSO) and diluted with phosphate buffer. The final concentration of DMF in all solutions is less than 2.5%. Test solutions containing different concentrations of the drug is mixed with albumin solution in phosphate buffer and incubated at about 27-37° C.±10° C. for about at least 15 min. Denaturation is induced by keeping the reaction mixture at about 60° C.±10° C. in a water bath for at least about 10 min. After cooling, the turbidity is measured at about 210-660 nm (Shimadzu Spectrometer). Percentage inhibition of denaturation is calculated from a control where no drug was added. The percentage of inhibition is calculated from the following formula. The standard solution is also prepared as similar to that of the test solution. Ibuprofen can be used as a standard.
The newly synthesized compounds were screened for their in-vitro anti-inflammatory activity by inhibiting the bovine serum albumin denaturation method. The test compounds were dissolved in a minimum dimethyl sulphoxide (DMSO) and diluted with phosphate buffer (0.2M, pH 7.4). The final concentration of DMF in all solutions was less than 2.5%. Test solution (1 mL) containing different concentrations of the drug was mixed with 1 mL of 1 mm albumin solution in phosphate buffer and incubated at 27-37° C.±10° C. for 15 min. Denaturation was induced by keeping the reaction mixture at 60° C.±10° C. in a water bath for 10 min. After cooling, the turbidity was measured at 210-660 nm (Shimadzu Spectrometer). Percentage inhibition of denaturation was calculated from control where no drug was added. Each experiment was done in triplicate, and the average was taken. The percentage of inhibition is calculated from the following formula. The standard solution was also prepared as similar to that of the test solution. Ibuprofen was used as a standard.
The inhibition was calculated using the following equation: % Inhibition=100 (1−Vt/Vc) where, Vt=Drug absorbance of triplicate average Vc=Control absorbance of triplicate average

Chain of bovine serum albumin (P02769 25-607): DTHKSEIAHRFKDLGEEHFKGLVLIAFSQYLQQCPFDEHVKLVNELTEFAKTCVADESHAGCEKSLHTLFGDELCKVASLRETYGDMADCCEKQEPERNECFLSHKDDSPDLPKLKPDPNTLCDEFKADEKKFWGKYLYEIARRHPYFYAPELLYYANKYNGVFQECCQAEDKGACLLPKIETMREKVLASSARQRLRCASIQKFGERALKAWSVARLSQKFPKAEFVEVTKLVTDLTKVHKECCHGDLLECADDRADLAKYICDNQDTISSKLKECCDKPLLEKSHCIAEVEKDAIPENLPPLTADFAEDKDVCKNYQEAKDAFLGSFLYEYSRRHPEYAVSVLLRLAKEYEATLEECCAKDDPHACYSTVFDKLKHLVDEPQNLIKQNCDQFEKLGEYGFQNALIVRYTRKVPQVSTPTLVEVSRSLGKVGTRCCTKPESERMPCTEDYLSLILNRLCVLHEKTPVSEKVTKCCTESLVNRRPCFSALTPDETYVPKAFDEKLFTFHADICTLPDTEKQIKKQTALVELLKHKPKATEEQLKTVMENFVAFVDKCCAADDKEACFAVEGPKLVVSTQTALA

Compound | % Inhibition at 10 μg (bovine serum albumin) [%] | inhibition rate (bovine serum albumin) [%] | melting point [°C]
COC(=O)c1c(C(=O)OC)c2ccc3cc(Br)ccc3n2c1C(=O)c1ccc(Br)cc1 [Compound 3c, dimethyl 7-bromo-1-(4-bromobenzoyl)pyrrolo[1,2-α]quinoline-2,3-dicarboxylate] | 54.35 | 54.35 | 170 to 172
COC(=O)c1c(C(=O)OC)c2ccc3cc(Br)ccc3n2c1C(=O)c1ccc(Cl)cc1 [Compound 3b, dimethyl 7-bromo-1-(4-chlorobenzoyl)pyrrolo[1,2-α]quinoline-2,3-dicarboxylate] | 42.52 | 42.52 | 210 to 212
COC(=O)c1c(C(=O)OC)c2ccc3cc(Br)ccc3n2c1C(=O)c1ccc(F)cc1 [Compound 3a, dimethyl 7-bromo-1-(4-fluorobenzoyl)pyrrolo[1,2-α]quinoline-2,3-dicarboxylate] | 49.75 | 49.75 | 169 to 171

— patent publication US11945819B1, “Dimethyl 7-bromo-1-(4-substituted benzoyl)pyrrolo[1,2-a]quinoline-2,3-dicarboxylates as anti-inflammatory agents” (KING FAISAL UNIVERSITY, priority 2023, dated 2024)
